Data: US20100298141A1, “SUBSTITUTED PYRIDINE N-OXIDE HERBICIDES” (E. I. DU PONT DE NEMOURS AND COMPANY, priority 2007, published 2010)

Legend:
barnyardgrass [1] = test: Test A pre-/postemergence greenhouse test; format: in vivo, Echinochloa crus-galli; conditions: for Plant response rating, Barnyardgrass: 0 to 100 scale where 0 is no effect and 100 is complete control; for Barnyardgrass plant response rating: 0 to 100 scale
Outline: (§1)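 Sowing in loam/sand; same-day pre (directed soil spray) and post (foliar, 1–2 leaf, 2–10 cm) treatment with surfactant-containing non-phytotoxic solvent formulation; ~10 days in greenhouse; eye-scored injury against untreated plants.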

umbrella sedge = test: Test C flooded paddy test; format: in vivo, Cyperus difformis; conditions: Flood
Outline: (§2)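 In-water treatment: compound dosed into 3 cm flood over soil, water level unchanged throughout. Controls run alongside; visual assessment at day 13–15.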

wheat = test: Test A pre-/postemergence greenhouse test; format: in vivo, Triticum aestivum; conditions: for Plant response rating, Wheat: 0 to 100 scale where 0 is no effect and 100 is complete control; for Wheat plant response rating: 0 to 100 scale
Outline: as §1

duck salad = test: Test C flooded paddy test; format: in vivo, Heteranthera limosa; conditions: Flood
Outline: as §2

rice = test: Test C flooded paddy test; format: in vivo, Oryza sativa; conditions: Flood
Outline: as §2

redroot pigweed = test: Test A pre-/postemergence greenhouse test; format: in vivo, Amaranthus retroflexus; conditions: for Plant response rating, Pigweed: 0 to 100 scale where 0 is no effect and 100 is complete control; for Pigweed plant response rating: 0 to 100 scale
Outline: as §1

velvetleaf = test: Test A pre-/postemergence greenhouse test; format: in vivo, Abutilon theophrasti; conditions: for Plant response rating, Velvetleaf: 0 to 100 scale where 0 is no effect and 100 is complete control; for Velvetleaf plant response rating: 0 to 100 scale
Outline: as §1

barnyardgrass [2] = test: Test C flooded paddy test; format: in vivo, Echinochloa crus-galli; conditions: Flood
Outline: as §2

corn = test: Test A pre-/postemergence greenhouse test; format: in vivo, Zea mays; conditions: for Plant response rating, Corn: 0 to 100 scale where 0 is no effect and 100 is complete control; for Corn plant response rating: 0 to 100 scale
Outline: as §1

crabgrass = test: Test A pre-/postemergence greenhouse test; format: in vivo, Digitaria sanguinalis; conditions: for Plant response rating, Crabgrass, Large: 0 to 100 scale where 0 is no effect and 100 is complete control; for Crabgrass, Large plant response rating: 0 to 100 scale
Outline: as §1

giant foxtail = test: Test A pre-/postemergence greenhouse test; format: in vivo, Setaria faberi; conditions: for Plant response rating, Foxtail, Giant: 0 to 100 scale where 0 is no effect and 100 is complete control; for Foxtail, Giant plant response rating: 0 to 100 scale
Outline: as §1

morningglory = test: Test A pre-/postemergence greenhouse test; format: in vivo, Ipomoea spp.; conditions: for Plant response rating, Morningglory: 0 to 100 scale where 0 is no effect and 100 is complete control; for Morningglory plant response rating: 0 to 100 scale
Outline: as §1

[3] = Postemergence, 500 g ai/ha, 0 is no effect, 100 is complete control
[4] = Preemergence, 125 g ai/ha, 0 no effect, 100 complete control
[5] = Preemergence, 500 g ai/ha, 0 no effect, 100 complete control
[6] = 31 g ai/ha, scale 0 to 100 (0 no effect, 100 complete control)
[7] = 62 g ai/ha, scale 0 to 100 (0 no effect, 100 complete control)
[8] = 125 g ai/ha, scale 0 to 100, 0 no effect, 100 complete control, 13 to 15 days
[9] = 250 g ai/ha, scale 0 to 100, 0 no effect, 100 complete control, 13 to 15 days
[10] = 62 g ai/ha, scale 0 to 100, 0 no effect, 100 complete control, 13 to 15 days

## CCOc1ccc(S(=O)(=O)Cc2c(C(F)(F)F)nn(C)c2OC(F)F)[n+]([O-])c1 [Compound 105]
Barnyardgrass [1]; Postemergence, 125 g ai/ha
  Plant response rating, Barnyardgrass: 10
Barnyardgrass [1]; [3]
  Barnyardgrass plant response rating: 60
Barnyardgrass [1]; [4]
  Barnyardgrass plant response rating: 10
Barnyardgrass [1]; [5]
  Barnyardgrass plant response rating: 30
Umbrella sedge; [6]
  Plant response rating, Sedge, Umbrella: 0
Umbrella sedge; [7]
  Plant response rating, Sedge, Umbrella: 0
Umbrella sedge; [8]
  Plant response rating, Sedge, Umbrella: 0
Umbrella sedge; [9]
  Plant response rating, Sedge, Umbrella: 0
wheat; Postemergence, 125 g ai/ha
  Plant response rating, Wheat: 0
wheat; [3]
  Wheat plant response rating: 0
wheat; [4]
  Wheat plant response rating: 0
wheat; [5]
  Wheat plant response rating: 0
Duck salad; [6]
  Plant response rating, Ducksalad: 0
Duck salad; [7]
  Plant response rating, Ducksalad: 0
Duck salad; [8]
  Plant response rating, Ducksalad: 0
Duck salad; [9]
  Plant response rating, Ducksalad: 0
rice; [6]
  Plant response rating, Rice: 0
rice; [7]
  Plant response rating, Rice: 0
rice; [8]
  Plant response rating, Rice: 0
rice; [9]
  Plant response rating, Rice: 0
Redroot pigweed; Postemergence, 125 g ai/ha
  Plant response rating, Pigweed: 0
Redroot pigweed; [3]
  Pigweed plant response rating: 0
Redroot pigweed; [4]
  Pigweed plant response rating: 0
Redroot pigweed; [5]
  Pigweed plant response rating: 0
velvetleaf; Postemergence, 125 g ai/ha
  Plant response rating, Velvetleaf: 0
velvetleaf; [3]
  Velvetleaf plant response rating: 0
velvetleaf; [4]
  Velvetleaf plant response rating: 0
velvetleaf; [5]
  Velvetleaf plant response rating: 0
Barnyardgrass [2]; [6]
  Plant response rating, Barnyardgrass: 0
Barnyardgrass [2]; [7]
  Plant response rating, Barnyardgrass: 0
Barnyardgrass [2]; [8]
  Plant response rating, Barnyardgrass: 0
Barnyardgrass [2]; [9]
  Plant response rating, Barnyardgrass: 0
corn; Postemergence, 125 g ai/ha
  Plant response rating, Corn: 0
corn; [3]
  Corn plant response rating: 0
corn; [4]
  Corn plant response rating: 0
corn; [5]
  Corn plant response rating: 0
crabgrass; Postemergence, 125 g ai/ha
  Plant response rating, Crabgrass, Large: 10
crabgrass; [3]
  Crabgrass, Large plant response rating: 70
crabgrass; [4]
  Crabgrass, Large plant response rating: 40
crabgrass; [5]
  Crabgrass, Large plant response rating: 70
Giant foxtail; Postemergence, 125 g ai/ha
  Plant response rating, Foxtail, Giant: 10
Giant foxtail; [3]
  Foxtail, Giant plant response rating: 60
Giant foxtail; [4]
  Foxtail, Giant plant response rating: 40
Giant foxtail; [5]
  Foxtail, Giant plant response rating: 50
morningglory; Postemergence, 125 g ai/ha
  Plant response rating, Morningglory: 0
morningglory; [3]
  Morningglory plant response rating: 30
morningglory; [4]
  Morningglory plant response rating: 10
morningglory; [5]
  Morningglory plant response rating: 40

## Cn1nc(C(F)(F)F)c(C[S+]([O-])c2cc(Cl)cc[n+]2[O-])c1OC(F)F (stereo not drawn) [Compound 57]
Barnyardgrass [1]; Postemergence, 125 g ai/ha
  Plant response rating, Barnyardgrass: 30
Barnyardgrass [1]; [3]
  Barnyardgrass plant response rating: 50
Barnyardgrass [1]; [4]
  Barnyardgrass plant response rating: 60
Barnyardgrass [1]; Preemergence, 500 g ai/ha
  Plant response rating, Barnyardgrass: 100
Umbrella sedge; [9]
  Plant response rating, Sedge, Umbrella: 100
wheat; Postemergence, 125 g ai/ha
  Plant response rating, Wheat: 50
wheat; [3]
  Wheat plant response rating: 70
wheat; [4]
  Wheat plant response rating: 20
wheat; Preemergence, 500 g ai/ha
  Plant response rating, Wheat: 40
Duck salad; [10]
  Plant response rating, Ducksalad: 40
Duck salad; [9]
  Plant response rating, Ducksalad: 95
rice; [10]
  Plant response rating, Rice: 0
rice; [9]
  Plant response rating, Rice: 65
Redroot pigweed; Postemergence, 125 g ai/ha
  Plant response rating, Pigweed: 70
Redroot pigweed; [3]
  Pigweed plant response rating: 100
Redroot pigweed; [4]
  Pigweed plant response rating: 70
Redroot pigweed; Preemergence, 500 g ai/ha
  Plant response rating, Pigweed: 100
velvetleaf; Postemergence, 125 g ai/ha
  Plant response rating, Velvetleaf: 30
velvetleaf; [3]
  Velvetleaf plant response rating: 70
velvetleaf; [4]
  Velvetleaf plant response rating: 50
velvetleaf; Preemergence, 500 g ai/ha
  Plant response rating, Velvetleaf: 70
Barnyardgrass [2]; [10]
  Plant response rating, Barnyardgrass: 15
Barnyardgrass [2]; [9]
  Plant response rating, Barnyardgrass: 20
corn; Postemergence, 125 g ai/ha
  Plant response rating, Corn: 0
corn; [3]
  Corn plant response rating: 60
corn; [4]
  Corn plant response rating: 0
corn; Preemergence, 500 g ai/ha
  Plant response rating, Corn: 0
crabgrass; Postemergence, 125 g ai/ha
  Plant response rating, Crabgrass, Large: 60
crabgrass; [3]
  Crabgrass, Large plant response rating: 90
crabgrass; [4]
  Crabgrass, Large plant response rating: 60
crabgrass; Preemergence, 500 g ai/ha
  Plant response rating, Crabgrass, Large: 80
Giant foxtail; Postemergence, 125 g ai/ha
  Plant response rating, Foxtail, Giant: 30
Giant foxtail; [3]
  Foxtail, Giant plant response rating: 60
Giant foxtail; [4]
  Foxtail, Giant plant response rating: 30
Giant foxtail; Preemergence, 500 g ai/ha
  Plant response rating, Foxtail, Giant: 100
morningglory; Postemergence, 125 g ai/ha
  Plant response rating, Morningglory: 30
morningglory; [3]
  Morningglory plant response rating: 70
morningglory; [4]
  Morningglory plant response rating: 40
morningglory; Preemergence, 500 g ai/ha
  Plant response rating, Morningglory: 90
